The supplement of paper PMC10307832

Tests used:
Experiment in all cases: relative viability (nuclei count vs DMSO), 5 days (fraction); higher = more cells survive
[1] = compound: CC1=CC(=NN1)NC2=CC(=NC(=N2)/C=C/C3=CC=CC=C3)N4CCN(CC4)C
In short: (§1)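 Lung cancer cell lines received five library-drug doses (not always all listed) spaced by √10, pinned on vehicle-anchored 1536-well plates after an overnight stay at 37 °C. Five days later, with no medium change, nuclei were Hoechst-stained, imaged at 4× and counted with MetaXpress. Viability is treated-well nuclei relative to vehicle-well nuclei, as a median across plates. Passing plates had control CV below 25% and at least one doubling.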

Obatoclax = compound: COC1=CC(c2cc3ccccc3[nH]2)=N/C1=C\c1[nH]c(C)cc1C [Obatoclax]
In short: as §1

Bortezomib = compound: CC(C)C[C@H](NC(=O)[C@H](Cc1ccccc1)NC(=O)c1cnccn1)B(O)O [Bortezomib]
In short: as §1

Cell Line	relative viability ([1]; 0.08 µM)	relative viability ([1]; 0.253 µM)	relative viability ([1]; 0.8 µM)	relative viability ([1]; 2.53 µM)	relative viability ([1]; 8 µM)	relative viability (Obatoclax; 0.01 µM)	relative viability (Obatoclax; 0.03162 µM)	relative viability (Obatoclax; 0.1 µM)	relative viability (Obatoclax; 0.3162 µM)	relative viability (Obatoclax; 1 µM)	relative viability (Bortezomib; 0.0002 µM)	relative viability (Bortezomib; 0.000632 µM)	relative viability (Bortezomib; 0.002 µM)	relative viability (Bortezomib; 0.002 µM, anchor plate)	relative viability (Bortezomib; 0.006325 µM)	relative viability (Bortezomib; 0.02 µM)
HOP-62	1.03	1.11	1.04	0.825	0.367	1.01	0.985	0.889	1.02	1.05	1.02	0.985	0.925	0.791	0.477	0.076
IA-LM	0.852	1.07	1.1	0.866	0.231	0.93	0.935	0.854	0.625	0.203	0.871	0.991	0.833	0.817	0.0932	0.0256
LC-2-ad	1.02	0.996	0.799	0.303	0.177	0.988	0.988	0.81	0.896	0.564	0.877	0.815	0.99	1.01	0.257	0.198
LCLC-97TM1	0.911	0.963	0.912	0.504	0.121	0.988	0.801	1.31	0.856	0.908	0.943	0.729	1.08	0.744	0.439	0.118
LCLC-103H	0.998	1.07	1.02	0.835	0.694	0.978	0.894	0.926	0.965	1.08	0.982	0.94	1.01	1.05	0.92	0.278
LK-2	1.04	1.02	0.809	0.47	0.127	1.03	1.01	1.17	0.932	1.11	0.841	0.89	0.647		0.209	0.182
LOU-NH91	0.928	1.08	0.991	0.806	0.424	0.974	0.932	0.68	0.853	0.854	0.828	0.825	0.497	0.518	0.307	0.365
LU99A	1.02	0.883	0.786	0.426	0.269	0.925	0.963	0.622	0.922	0.364		0.737	1.03	1.14	0.797	0.303
LXF-289	0.993	1.02	0.964	0.863	0.435	0.97	1.03	0.989	0.982	0.951	0.987	0.999	1.04	0.994	0.185	0.0884
NCI-H23	0.891	0.886	0.796	0.225	0.144	1.01	0.853	0.832	0.761	0.389	0.777	0.72	0.995	1.09	0.294	0.134
NCI-H322M	0.951	0.969	0.847	0.413	0.281	0.975	0.783	1.16	1	1.01	0.922		0.918	1.24	0.458	0.421
NCI-H358	0.847	0.92	0.787	0.203	0.11	0.923	0.911	0.833	0.623	0.319	0.904	0.675	0.874		0.131	0.162
NCI-H441	1.01	1.01	0.931	0.249	0.143	1.06	0.91	0.99	0.705	0.463	0.936	0.964	0.575	0.555	0.132	0.139
NCI-H460	1.01	1.03	1.01	0.597	0.0321	1	0.936	0.882	0.746	0.56	0.971	0.97	1.03	1.09	0.542	0.0702
NCI-H520	0.975	1.04	0.871	0.261	0.126	0.993	0.791	1.07	0.976	0.774	1.08	0.956	0.654	0.622	0.172	0.169
NCI-H522	0.917	0.89	0.962	0.554	0.444	0.951	0.894	0.861	0.876	0.904	0.947	0.745	1.02		0.638	0.415
NCI-H596	1	0.998	0.879	0.614	0.256	1.01	0.858	0.843	0.691	0.584	0.918	0.894	0.718	1.05	0.241	0.211
NCI-H647	0.868	1.05	0.935	0.14	0.056	0.987	0.894	0.68	0.711	0.303	0.865	0.812	0.55	0.962	0.0435	0.0339
NCI-H661	0.986	0.958	1.03	0.708	0.356	0.96	0.962	1.02	0.883	0.842	0.952	0.99	0.989	0.807	0.719	0.228
NCI-H727	0.835	0.688	0.924	0.441	0.374	1.09	0.88	1.14	0.972	0.658	0.919	1.06	0.897	0.936	0.647	0.171
NCI-H838	0.963	1.03	0.846	0.214	0.133	0.995	0.945	0.78	0.904	0.65	0.952	0.955	0.974	0.858	0.253	0.161
NCI-H1299	1.04	1.02	1.03	0.719	0.328	0.989	1.03	0.948	1.01	0.9	0.992	0.955	1.03	1	0.507	0.167
